Patent US20250353873A1, “COMPOUNDS AND METHODS FOR MODULATING APOE EXPRESSION” (Ionis Pharmaceuticals, Inc., priority 2024, published 2025)
Where “and” joins values, the source holds several entries; their conditions need not be identical. Equal values may be shown once. Marks after values point to notes of the source that are not given here. Strand notation (5' to 3'): a small letter for the sugar, then the base; units joined by * are phosphorothioate-linked, units joined directly phosphodiester-linked; [ ] holds rarer units or linkages, { } end groups; capitals alone tell only the bases. [ms] = mesyl phosphoramidate linkage; e = 2'-O-(2-methoxyethyl) (MOE); k = constrained ethyl (cEt); [5mC] = 5-methylcytosine; d = 2'-deoxy (DNA)

Assays:
human APOE RNA [1] = test: Activity in APOE C57BL/6NTac-Apoeem7250 knock-in mice, single ICV bolus, 4 weeks (Example 10); format: in vivo; conditions: single ICV bolus 300 μg, 4 weeks post treatment, normalized to mouse Ppia
How it was run: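 Knock-in mice (2–4 per group) received one 300 μg ICV bolus of oligonucleotide or PBS. After four weeks, human APOE RNA in cortex and spinal cord measured by RT-qPCR (primer probe set RTS3073), normalized to mouse Ppia, expressed as % of PBS controls.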

human APOE RNA [2] = test: Activity in APOE C57BL/6NTac-Apoeem7250 knock-in mice, single ICV bolus, 20 weeks (Example 13); format: in vivo; conditions: single ICV bolus 300 μg, 20 weeks post treatment, normalized to mouse Ppia
Method: Modified oligonucleotides described above were tested in the APOE C57BL/6NTac-Apoeem7250 knock-in mouse model described above.
APOE C57BL/6NTac-Apoeem7250 knock-in mice were divided into groups of 4 mice each. Each mouse received a single ICV bolus of 300 μg of modified oligonucleotide. A group of 2-4 mice received a single ICV bolus with PBS as a negative control.
Twenty weeks post treatment, mice were sacrificed and RNA was extracted from cortical brain tissue and spinal cord for quantitative real-time RT-PCR analysis of RNA expression of APOE using human primer probe set RTS3073 (described herein above). APOE RNA levels were normalized to mouse Ppia. Mouse Ppia was amplified using primer probe set m_cyclo24 (described herein above). Results are presented as percent human APOE RNA relative to the amount of human APOE RNA in PBS treated animals, (% control). Each experiment is identified in separate tables below.

human APOE RNA [3] = test: Dose-dependent inhibition of human APOE RNA in HepG2 cells, electroporation, 50,000 cells per well, RT-PCR normalized to GAPDH (Example 4, Tables 8-10); format: cell-based; conditions: HepG2, electroporation, 16-hour treatment
How it was run: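 HepG2 cells, 50,000 per well, electroporated with modified oligonucleotide at various concentrations. APOE RNA quantified by RT-PCR with human primer probe set RTS3073, normalized to GAPDH. Values are percent APOE RNA relative to untreated control cells.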

human APOE RNA [4] = test: Activity in APOE C57BL/6NTac-Apoeem7250 knock-in mice, single ICV bolus, 8 weeks (Example 11); format: in vivo; conditions: single ICV bolus 300 μg, 8 weeks post treatment, normalized to mouse Ppia
How it was run: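 Human APOE knock-in C57BL/6NTac mice given one ICV bolus of 300 μg oligonucleotide; PBS-dosed group as control. At 8 weeks, cortex and spinal cord RNA measured by qRT-PCR (human probe RTS3073), normalized to mouse Ppia, expressed as % of PBS control.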

human APOE RNA [5] = test: Activity in APOE C57BL/6NTac-Apoeem7250 knock-in mice, single ICV bolus, 16 weeks (Example 12); format: in vivo; conditions: cortex; single ICV bolus 300 μg; 16 weeks post treatment; normalized to mouse Ppia
How it was run: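 Knock-in mice (3-4 per group) received one ICV bolus of 300 μg oligonucleotide, PBS as control. After 16 weeks, human APOE RNA in cortex and spinal cord measured by RT-qPCR, normalized to mouse Ppia, and reported as % of PBS control.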

Substance	APOE RNA (% control) Cortex (human APOE RNA [1]) [% control]	APOE RNA (% control) Spinal Cord (human APOE RNA [1]) [% control]	APOE RNA (% control) Cortex (human APOE RNA [2])	APOE RNA (% control) Spinal Cord (human APOE RNA [2])	APOE RNA (% UTC) (human APOE RNA [3]; 5 nM)	APOE RNA (% UTC) (human APOE RNA [3]; 13 nM)	APOE RNA (% UTC) (human APOE RNA [3]; 33 nM)	APOE RNA (% UTC) (human APOE RNA [3]; 82 nM)	APOE RNA (% UTC) (human APOE RNA [3]; 205 nM)	APOE RNA (% UTC) (human APOE RNA [3]; 512 nM)	APOE RNA (% UTC) (human APOE RNA [3]; 1,280 nM)	APOE RNA (% UTC) (human APOE RNA [3]; 3,200 nM)	APOE RNA (% UTC) (human APOE RNA [3]; 8,000 nM)	APOE RNA (% UTC) (human APOE RNA [3]; 20,000 nM)	IC50 (human APOE RNA [3]) [µM]	APOE RNA (% control) Cortex (human APOE RNA [4]; cortex) [% control]	APOE RNA (% control) Spinal Cord (human APOE RNA [4]; spinal cord) [% control]	APOE RNA (% control) Cortex (human APOE RNA [5])
1779961 (e[5mC]*eTeT*kG[ms]kG*eT*dG[ms]dA[ms]dA[ms]dT*d[5mC]*dT*dT*dT*dA[ms]dT*eT*eA*eA*eA; antisense) [Compound 1779961]	39	53	59 % control	26 % control	–	–	–	–	–	–	–	–	–	–	–	–	–	–
1779699 (e[5mC]*eTeT*kG*kG*eT*dG[ms]dA[ms]dA[ms]dT*d[5mC]*dT*dT*dT*dA[ms]dT*eT*eA*eA*eA; antisense) [Compound 1779699]	44	54	53 % control	25 % control	–	–	–	–	–	–	–	–	–	–	–	–	–	–
1778109: 6-10-4 MOE gapmer ACTTGGTGAATCTTTATTAA, linkages sooossszzsssssszoss (eA*e[5mC]eTeTeG*eG*dT*dG[ms]dA[ms]dA*dT*d[5mC]*dT*dT*dT*dA[ms]eTeT*eA*eA) [compound 1778109]	59	61	81 % control	34 % control	–	–	–	–	–	–	–	–	–	–	–	–	–	–
1785588 (k[5mC]*kT*kT*dG[ms]dG[ms]dT[ms]dG*dA*dA[ms]dT[ms]d[5mC]*dT*dT*dT*dA*dT*kT*kA*dA[ms]kA; antisense) [Compound 1785588]	30	29	40 % control	18 % control	–	–	–	–	–	–	–	–	–	–	–	–	–	–
1785591 (k[5mC]*kT*kT*dG[ms]dG[ms]dT[ms]dG*dA*dA*dT*d[5mC]*dT[ms]dT[ms]dT*dA*dT*kT*kA*dA[ms]kA; antisense) [Compound 1785591]	37	39	51 % control	42 % control	–	–	–	–	–	–	–	–	–	–	–	–	–	–
1757565 (eA*e[5mC]eTeTkG*dG*dT*dG*dA*dA*dT*d[5mC]*dT*dT*dT*eAeTeT*eA*eA; antisense) [Compound 1757565]	–	–	82‡ % control	73‡ % control	95	108	76	84	89	64	49	30	55	22	2.13	–	–	–
1757585 (eT*eTeGkGkT*dG*dA*dA*dT*d[5mC]*dT*dT*dT*dA*dT*kTeAeA*eA*e[5mC]; antisense) [Compound 1757585]	–	–	62 % control	61 % control	45	49	44	38	33	53	19	32	12	1	0.01	–	–	–
1757567 (eA*e[5mC]eTeTeG*dG*dT*dG*dA*dA*dT*d[5mC]*dT*dT*dT*kAeTeT*eA*eA; antisense) [Compound 1757567]	–	–	80 % control	65 % control	103	108	97	91	95	64	59	37	19	23	1.82	–	–	–
1757556: mixed MOE/cEt gapmer TTGGTGAATCTTTATTAA, sugar eeeeeddddddddekkee, linkages soossssssssssooss (eT*eTeGeG*eT*dG*dA*dA*dT*d[5mC]*dT*dT*dT*eAkTkT*eA*eA) [compound 1757556]	–	–	99 % control	82 % control	92	93	98	103	101	65	71	60	35	13	3.53	–	–	–
1693144: 6-10-4 MOE gapmer ACTTGGTGAATCTTTATTAA, linkages soosssszzzssssszsss (eA*e[5mC]eTeT*eG*eG*dT*dG[ms]dA[ms]dA[ms]dT*d[5mC]*dT*dT*dT*dA[ms]eT*eT*eA*eA) [compound 1693144]	–	–	65 % control	71 % control	–	–	–	–	–	–	–	–	–	–	–	67	43	113 % control and 61 % control
1757581 (eT*eTeGeGkT*dG*dA*dA*dT*d[5mC]*dT*dT*dT*dA*dT*eTeAeA*eA*e[5mC]; antisense) [Compound 1757581]	–	–	87 % control	75 % control	83	85	100	78	76	58	33	25	15	8	0.68	–	–	–
1757570 (eA*e[5mC]eTeTkG*dG*dT*dG*dA*dA*dT*d[5mC]*dT*dT*dT*kAkTeT*eA*eA; antisense) [Compound 1757570]	–	–	64 % control	48 % control	154	–	–	151	62	26	42	22	18	18	0.58	–	–	–
